Target: T1, N-terminal HiBiT tagged BCL6 (Homo sapiens, UniProt P41182)
T1 construct: expressed in transfected cells; host or cells: HT1080 (ATCC CCL-121), stably transduced with lentivirus pLV-UBC-N-HiBiT-BCL6-PGK-puro
Assay: HiBiT based degradation assay
Type: cell-based
Conditions: HT1080 cells expressing N-terminal HiBiT tagged BCL6, 5 hours of incubation; for Ymin (5 hr): BCL6 degradation normalized with DMSO control; for DC50: four-parameter logistic model, read-out: EC50 (5 hr)
Description: Human BCL6 protein coding open reading frame fused with N-terminal HiBiT coding sequence was synthesized from Integrated DNA Technologies (IDT). Next, the N-HiBiT-BCL6 sequence was cloned into pLV-UBC-PGK-Puro, a lentivirus plasmid purchased from Vectorbuilder, to generate pLV-UBC-N-HiBiT-BCL6-PGK-puro. Lentiviral particles were generated from Lenti-X™ 293T cells (Clontech) by co-transfection of pLV-UBC-N-HiBiT-BCL6-PGK-puro plasmids and lentiviral packaging plasmid mix (Cellecta). HT1080 [HT1080] (ATCC CCL-121) cells were infected with the lentivirus, and HT1080 cells stably integrated with the lentiviral vectors were established by incubation with 1 μg/mL puromycin (Thermofisher).
HT1080 cells expressing N-terminal HiBiT tagged BCL6 were dispensed into a 384-well plate pre-spotted with compounds at varying concentrations. Five thousand cells were seeded into each well in 40 μL of RPMI 1640 media plus 10% Fetal Bovine Serum (10082-147, Thermofisher). After 5 hours of incubation at 37° C. with 5% CO2, 30 μL of the NANO-GLOR HiBiT Lytic Detection System working solution (Promega) was added to each well and incubated at room temperature for 15 min. After incubation, luminescence was read on a PHERAstar FSX Plate Reader (BMG). BCL6 degradation at each indicated concentration was normalized with DMSO control. The BCL6 degradation curves were plotted using a four-parameter logistic model.

SMILES | Ymin (5 hr) | DC50
CNC(=O)COc1cc2cc(Nc3nc(N4CCN(CC5CCN(c6cccc7c(N8CCC(=O)NC8=O)nn(C)c67)CC5)CC4)ncc3Cl)cnc2n(C(C)C)c1=O [Compound 109, 2-((6-((5-chloro-2-(4-((1-(3-(2,4-dioxotetrahydropyrimidin-1 (2H)-yl)-1-methyl-1H-indazol-7-yl)piperidin-4-yl)methyl)piperazin-1-yl)pyrimidin-4-yl)amino)-1-isopropyl-2-oxo-1,2-dihydro-1,8-naphthyridin-3-yl)oxy)-N-methylacetamide] | +++ (30% ≤ Ymin < 50%) | 10 to 100 nM
CNC(=O)COc1cc2cc(Nc3nc(N4CCCN(CC5CCN(c6cccc7c(C8CCC(=O)NC8=O)nn(C)c67)CC5)CC4)ncc3Cl)cnc2n(C)c1=O (stereo not drawn) [Compound 110, 2-((6-((5-chloro-2-(4-((1-(3-(2,6-dioxopiperidin-3-yl)-1-methyl-1H-indazol-7-yl)piperidin-4-yl)methyl)-1,4-diazepan-1-yl)pyrimidin-4-yl)amino)-1-methyl-2-oxo-1,2-dihydro-1,8-naphthyridin-3-yl)oxy)-N-methylacetamide] | +++ (30% ≤ Ymin < 50%) | 10 to 100 nM
CNC(=O)COc1cc2cc(Nc3nc(N4CCC5(CCN(CC6CCN(c7cccc8c(C9CCC(=O)NC9=O)nn(C)c78)CC6)CC5)CC4)ncc3Cl)cnc2n(C)c1=O (stereo not drawn) [Compound 113, 2-((6-((5-chloro-2-(9-((1-(3-(2,6-dioxopiperidin-3-yl)-1-methyl-1H-indazol-7-yl)piperidin-4-yl)methyl)-3,9-diazaspiro[5.5]undecan-3-yl)pyrimidin-4-yl)amino)-1-methyl-2-oxo-1,2-dihydro-1,8-naphthyridin-3-yl)oxy)-N-methylacetamide] | ++++ (Ymin < 30%) | 10 to 100 nM
CNC(=O)COc1cc2cc(Nc3nc(N4CC5COCC(C4)N5CC4CCN(c5cccc6c(C7CCC(=O)NC7=O)nn(C)c56)CC4)ncc3Cl)cnc2n(C)c1=O (stereo not drawn) [Compound 117, 2-((6-((5-chloro-2-(9-((1-(3-(2,6-dioxopiperidin-3-yl)-1-methyl-1H-indazol-7-yl)piperidin-4-yl)methyl)-3-oxa-7,9-diazabicyclo[3.3.1]nonan-7-yl)pyrimidin-4-yl)amino)-1-methyl-2-oxo-1,2-dihydro-1,8-naphthyridin-3-yl)oxy)-N-methylacetamide] | ++++ (Ymin < 30%) | < 10 nM
CNC(=O)COc1cc2cc(Nc3nc(N4CCC5(CC4)CN(CC4CCN(c6cccc7c(C8CCC(=O)NC8=O)nn(C)c67)CC4)C5)ncc3Cl)cnc2n(C)c1=O (stereo not drawn) [Compound 120, 2-((6-((5-chloro-2-(2-((1-(3-(2,6-dioxopiperidin-3-yl)-1-methyl-1H-indazol-7-yl)piperidin-4-yl)methyl)-2,7-diazaspiro[3.5]nonan-7-yl)pyrimidin-4-yl)amino)-1-methyl-2-oxo-1,2-dihydro-1,8-naphthyridin-3-yl)oxy)-N-methylacetamide] | ++++ (Ymin < 30%) | < 10 nM
CNC(=O)COc1cc2cc(Nc3nc(N4CCC5(CC4)CN(CC4CCN(c6ccc7c(C8CCC(=O)NC8=O)nn(C)c7c6)CC4)C5)ncc3Cl)cnc2n(C)c1=O (stereo not drawn) [Compound 121, 2-((6-((5-chloro-2-(2-((1-(3-(2,6-dioxopiperidin-3-yl)-1-methyl-1H-indazol-6-yl)piperidin-4-yl)methyl)-2,7-diazaspiro[3.5]nonan-7-yl)pyrimidin-4-yl)amino)-1-methyl-2-oxo-1,2-dihydro-1,8-naphthyridin-3-yl)oxy)-N-methylacetamide] | +++ (30% ≤ Ymin < 50%) | < 10 nM
CNC(=O)COc1cc2cc(Nc3nc(N4CC[C@H](CNc5cccc6c(C7CCC(=O)NC7=O)nn(C)c56)C4)ncc3Cl)cnc2n(C)c1=O (stereo partly drawn) [Compound 122a, 2-((6-((5-chloro-2-((3R)-3-(((3-(2,6-dioxopiperidin-3-yl)-1-methyl-1H-indazol-7-yl)amino)methyl)pyrrolidin-1-yl)pyrimidin-4-yl)amino)-1-methyl-2-oxo-1,2-dihydro-1,8-naphthyridin-3-yl)oxy)-N-methylacetamide] | ++ (50% ≤ Ymin < 70%) | 10 to 100 nM
CNC(=O)COc1cc2cc(Nc3nc(N4CC[C@@H](CNc5cccc6c(C7CCC(=O)NC7=O)nn(C)c56)C4)ncc3Cl)cnc2n(C)c1=O (stereo partly drawn) [Compound 122b, 2-((6-((5-chloro-2-((3S)-3-(((3-(2,6-dioxopiperidin-3-yl)-1-methyl-1H-indazol-7-yl)amino)methyl)pyrrolidin-1-yl)pyrimidin-4-yl)amino)-1-methyl-2-oxo-1,2-dihydro-1,8-naphthyridin-3-yl)oxy)-N-methylacetamide] | +++ (30% ≤ Ymin < 50%) | 10 to 100 nM
CNC(=O)COc1cc2cc(Nc3nc(N4CC[C@H](CNc5ccc6c(C7CCC(=O)NC7=O)nn(C)c6c5)C4)ncc3Cl)cnc2n(C)c1=O (stereo partly drawn) [Compound 123a, 2-((6-((5-chloro-2-((3R)-3-(((3-(2,6-dioxopiperidin-3-yl)-1-methyl-1H-indazol-6-yl)amino)methyl)pyrrolidin-1-yl)pyrimidin-4-yl)amino)-1-methyl-2-oxo-1,2-dihydro-1,8-naphthyridin-3-yl)oxy)-N-methylacetamide] | ++ (50% ≤ Ymin < 70%) | < 10 nM

Second part, the compound after the results:

Ymin (5 hr) | DC50 | SMILES
+++ (30% ≤ Ymin < 50%) | < 10 nM | CNC(=O)COc1cc2cc(Nc3nc(N4CCN(CC5CCN(c6ccc7c(C8CCC(=O)NC8=O)nn(C)c7c6)CC5)CC4)ncc3Cl)cnc2n(C)c1=O (stereo not drawn) [Compound 107, 2-((6-((5-chloro-2-(4-((1-(3-(2,6-dioxopiperidin-3-yl)-1-methyl-1H-indazol-6-yl)piperidin-4-yl)methyl)piperazin-1-yl)pyrimidin-4-yl)amino)-1-methyl-2-oxo-1,2-dihydro-1,8-naphthyridin-3-yl)oxy)-N-methylacetamide]
+++ (30% ≤ Ymin < 50%) | < 10 nM | CNC(=O)COc1cc2cc(Nc3nc(N4CCCN(CC5CCN(c6ccc7c(C8CCC(=O)NC8=O)nn(C)c7c6)CC5)CC4)ncc3Cl)cnc2n(C)c1=O (stereo not drawn) [Compound 111, 2-((6-((5-chloro-2-(4-((1-(3-(2,6-dioxopiperidin-3-yl)-1-methyl-1H-indazol-6-yl)piperidin-4-yl)methyl)-1,4-diazepan-1-yl)pyrimidin-4-yl)amino)-1-methyl-2-oxo-1,2-dihydro-1,8-naphthyridin-3-yl)oxy)-N-methylacetamide]
+++ (30% ≤ Ymin < 50%) | < 10 nM | CNC(=O)COc1cc2cc(Nc3nc(N4CCN(CCC5CCN(c6ccc7c(C8CCC(=O)NC8=O)nn(C)c7c6)CC5)CC4)ncc3Cl)cnc2n(C)c1=O (stereo not drawn) [Compound 114, 2-((6-((5-chloro-2-(4-(2-(1-(3-(2,6-dioxopiperidin-3-yl)-1-methyl-1H-indazol-6-yl)piperidin-4-yl)ethyl)piperazin-1-yl)pyrimidin-4-yl)amino)-1-methyl-2-oxo-1,2-dihydro-1,8-naphthyridin-3-yl)oxy)-N-methylacetamide]
+++ (30% ≤ Ymin < 50%) | < 10 nM | CNC(=O)COc1cc2cc(Nc3nc(N4CCN(CCC5CCN(c6cccc7c(C8CCC(=O)NC8=O)nn(C)c67)CC5)CC4)ncc3Cl)cnc2n(C)c1=O (stereo not drawn) [Compound 115, 2-((6-((5-chloro-2-(4-(2-(1-(3-(2,6-dioxopiperidin-3-yl)-1-methyl-1H-indazol-7-yl)piperidin-4-yl)ethyl)piperazin-1-yl)pyrimidin-4-yl)amino)-1-methyl-2-oxo-1,2-dihydro-1,8-naphthyridin-3-yl)oxy)-N-methylacetamide]
++++ (Ymin < 30%) | < 10 nM | CNC(=O)COc1cc2cc(Nc3nc(N4CC5(CN(CC6CCN(c7ccc8c(C9CCC(=O)NC9=O)nn(C)c8c7)CC6)C5)C4)ncc3Cl)cnc2n(C)c1=O (stereo not drawn) [Compound 118, 2-((6-((5-chloro-2-(6-((1-(3-(2,6-dioxopiperidin-3-yl)-1-methyl-1H-indazol-6-yl)piperidin-4-yl)methyl)-2,6-diazaspiro[3.3]heptan-2-yl)pyrimidin-4-yl)amino)-1-methyl-2-oxo-1,2-dihydro-1,8-naphthyridin-3-yl)oxy)-N-methylacetamide]
+++ (30% ≤ Ymin < 50%) | < 10 nM | CNC(=O)COc1cc2cc(Nc3nc(N4CC5(CN(CC6CCN(c7cccc8c(C9CCC(=O)NC9=O)nn(C)c78)CC6)C5)C4)ncc3Cl)cnc2n(C)c1=O (stereo not drawn) [Compound 119, 2-((6-((5-chloro-2-(6-((1-(3-(2,6-dioxopiperidin-3-yl)-1-methyl-1H-indazol-7-yl)piperidin-4-yl)methyl)-2,6-diazaspiro[3.3]heptan-2-yl)pyrimidin-4-yl)amino)-1-methyl-2-oxo-1,2-dihydro-1,8-naphthyridin-3-yl)oxy)-N-methylacetamide]
